Assay results as given in US20030224074A1, “Composition for the protection and regeneration of nerve cells containing the extract of Scutellaria Radix” (EUGENBIO INC., priority 2001, published 2003).
“Also recorded” adds a separate entry of the source.

Columns and labels:
SH-SY5Y = assay: Neurite regeneration in human neuroblastoma SH-SY5Y; type: cell-based; conditions: extract 50 μg/ml, retinoic acid 50 μM
Description: Retinoic acid and NGF inducing neurite growth were used as positive control groups.
(§1) PC12 cells and SH-SY5Y cells were incubated in DMEM supplemented with 10% FBS. In order to differentiate the cells, NGF or retinoic acid was treated in a serum-free medium.
(§2) Retinoic acid (50 μM) and NGF (50 ng/ml) inducing neurite growth were used as positive controls.

PC12 cells = assay: Neurite regeneration and quantitative comparison of neurites in PC12 cell line; type: cell-based, rat; conditions: NGF 50 ng/ml, 3 days
Description: as §1, §2
Subsequently, the length of neurites in each group was measured.
2) Differentiation index was scored as follows: no neurite expression (0), the length of expressed neurites was less than the diameter of cell bodies (1), the length of expressed neurites was similar to the diameter of cell bodies (2), the length of expressed neurites was less than two times as long as the diameter of cell bodies (3), and the length of expressed neurites was more than two times as long as the diameter of cell bodies, or the expressed neurites form synapses together with other nerve cells (4). 200 differentiated cells from each microculture well were defined as one unit, and five units were statistically analyzed.

HiB5 cells = assay: Induction of differentiation of HiB5 neuronal stem cells (neurofilament immunostaining, confocal microscope); type: cell-based, white rat
Description: A positive control group was treated with bFGF to induce the differentiation into nerve cells.
Cell culture medium was prepared by adding a mixture of 10% FBS (fetal bovine serum), penicillin/streptomycin, glutamine and sodium pyruvate (0.11 g/L) to DMEM. On differentiating at 39 C, another cell culture medium was prepared by adding pyruvate to a serum-free medium (N2, containing DMEM/F12, insulin, transferrin, Putreseine and BSA; Botten Stein & Sato., 1979).
Tissue sections were fixed with 4% paraformaldehyde and cryosected to a thickness of […]. The cryosected tissue sections were stained with nerve cell- or astrocyte-labeled antibody and FITC-labeled secondary antibody before examining under a confocal microscope. In order to stain with nerve cell-labeled antibody, cultured cells were fixed with 4% paraformaldehyde for 20 minutes, permeated in 0.5% NP-40 for 5 minutes, and blocked using 1% BSA solution for 30 minutes. […]
The cultured cells were immunostained with nerve cell-specific labeled molecule, and then neurite growth was observed under a confocal microscope. […] The differentiation degree was measured by double-staining neurites with nerve cell-specific labeled molecule (anti-neurofilament antibody) and FITC-labeled secondary antibody (green), followed by staining cell nuclei with propidium iodide (red).

## CC1=C(/C=C/C(C)=C/C=C/C(C)=C/C(=O)O)C(C)(C)CCC1 [Retinoic acid]
SH-SY5Y
  Average (%) of differentiated cells: 81.59%

## NGF: Nerve Growth Factor, positive control inducing neurite growth in PC12 cells
PC12 cells
  development of neurites: development of neurites

## bFGF: basic fibroblast growth factor, positive control inducing differentiation of HiB5 cells into nerve cells
HiB5 cells; bFGF 20 ng/ml
  cell survival: increased
HiB5 cells; extract 50 μg/ml or bFGF 20 ng/ml
  differentiation into nerve cells: induced the differentiation into nerve cells; also recorded: differentiated into nerve cells
